{
  "source": "patent US7102009B2",
  "about": "“Substituted amine derivatives and methods of use” (Amgen Inc., priority 2001, dated 2006)",
  "data": [
    {"tested_on": "Human Umbilical Vein Endothelial cells (VEGF-stimulated HUVEC proliferation)", "experiment": "HUVEC Proliferation Assay (VEGF-stimulated)", "assay_type": "cell-based", "details": "VEGF 50 ng/mL, 72 h incubation, CyQuant readout, read-out: inhibited VEGF-stimulated HUVEC proliferation at a level below (IC50)", "procedure": "Human Umbilical Vein Endothelial cells are purchased from Clonetics, Inc., as cryopreserved cells harvested from a pool of donors. These cells, at passage 1, are thawed and expanded in EBM-2 complete medium, until passage 2 or 3. The cells are trypsinized, washed in DMEM+10% FBS+antibiotics, and spun at 1000 rpm for 10 min. Prior to centrifugation of the cells, a small amount is collected for a cell count. After centrifugation, the medium is discarded, and the cells are resuspended in the appropriate volume of DMEM+10% FBS+antibiotics to achieve a concentration of 3×10^5 cells/mL. Another cell count is performed to confirm the cell concentration. The cells are diluted to 3×10^4 cells/mL in DMEM+10% FBS+antibiotics, and 100 μL of cells are added to a 96-well plate. The cells are incubated at 37° C. for 22 h.\nPrior to the completion of the incubation period, compound dilutions are prepared. Five-point, five-fold serial dilutions are prepared in DMSO, at concentrations 400-fold greater than the final concentrations desired. 2.5 μL of each compound dilution are diluted further in a total of 1 mL DMEM+10% FBS+antibiotics (400× dilution). Medium containing 0.25% DMSO is also prepared for the 0 μM compound sample. At the 22-hour timepoint, the medium is removed from the cells, and 100 μL of each compound dilution is added. The cells are incubated at 37° C. for 2-3 h.\nDuring the compound pre-incubation period, the growth factors are diluted to the appropriate concentrations. Solutions of DMEM+10% FBS+antibiotics, containing either VEGF or bFGF at the following concentrations: 50, 10, 2, 0.4, 0.08, and 0 ng/mL are prepared. For the compound-treated cells, solutions of VEGF at 550 ng/mL or bFGF at 220 ng/mL for 50 ng/mL or 20 ng/mL final concentrations, respectively, are prepared since 10 μL of each will be added to the cells (110 μL final volume). At the appropriate time after adding the compounds, the growth factors are added. VEGF is added to one set of plates, while bFGF is added to another set of plates. For the growth factor control curves, the media on wells B4-G6 of plates 1 and 2 are replaced with media containing VEGF or bFGF at the varying concentrations (50-0 ng/mL). The cells are incubated at 37° C. for an additional 72 h.\nAt the completion of the 72 h incubation period, the medium is removed, and the cells are washed twice with PBS. After the second wash with PBS, the plates are tapped gently to remove excess PBS, and the cells are placed at −70° C. for at least 30 min. The cells are thawed and analyzed using the CyQuant fluorescent dye (Molecular Probes C-7026), following the manufacturer's recommendations. The plates are read on a Victor/Wallac 1420 workstation at 485 nm/530 nm (excitation/emission). Raw data are collected and analyzed using a 4-parameter fit equation in XLFit. IC50 values are then determined.", "units": {"IC50": "µM"}, "values": [
      {"smiles": "O=C(Nc1ccc(Cl)cc1)c1cccnc1Nc1ccc2cn[nH]c2c1", "note": "[Example 3, N-(4-Chlorophenyl)[2-(1H-indazol-6-ylamino)(3-pyridyl)]carboxamide]", "IC50": "< 0.05"},
      {"smiles": "CC(C)c1ccc(NC(=O)c2cccnc2Nc2ccc3cn[nH]c3c2)cc1", "note": "[Example 5, 2-(1H-Indazol-6-ylamino)-N-(4-isopropyl-phenyl)nicotinamide]", "IC50": "< 0.05"},
      {"smiles": "CC(C)c1cccc(NC(=O)c2cccnc2Nc2ccc3cn[nH]c3c2)c1", "note": "[Example 6, [2-(1H-Indazol-6-ylamino)(3-pyridyl)]-N-[3-(methylethyl)phenyl]carboxamide]", "IC50": "< 0.05"},
      {"smiles": "CCC(C)c1ccc(NC(=O)c2cccnc2Nc2ccc3cn[nH]c3c2)cc1", "note": "(stereo not drawn) [Example 7, [2-(1H-Indazol-6-ylamino)(3-pyridyl)]-N-[4-(methylpropyl)phenyl]carboxamide]", "IC50": "< 0.05"},
      {"smiles": "CC(C)(C)c1ccc(NC(=O)c2cccnc2Nc2ccc3cn[nH]c3c2)cc1", "note": "[Example 8, N-[4-(tert-Butyl)phenyl][2-(1H-indazol-6-ylamino)(3-pyridyl)]carboxamide]", "IC50": "< 0.05"},
      {"smiles": "O=C(Nc1cccc(C(F)(F)F)c1)c1cccnc1Nc1ccc2cn[nH]c2c1", "note": "[Example 9, [2-(1H-Indazol-6-ylamino)(3-pyridyl)]-N-[3-(trifluoromethyl)phenyl]carboxamide]", "IC50": "< 0.05"},
      {"smiles": "CC(C)(C)c1cccc(NC(=O)c2cccnc2Nc2ccc3cn[nH]c3c2)c1", "note": "[Example 10, N-[3-(tert-Butyl)phenyl][2-(1H-indazol-6-ylamino)(3-pyridyl)]carboxamide]", "IC50": "< 0.05"},
      {"smiles": "NS(=O)(=O)c1cc(NC(=O)c2cccnc2Nc2ccc3cn[nH]c3c2)ccc1Cl", "note": "[Example 13, N-3-aminosulfonyl(4-chloro-phenyl)[2-(1H-indazol-6-ylamino)(3-pyridyl)]carboxamide]", "IC50": "< 0.05"},
      {"smiles": "Cc1cc(=O)[nH]c2cc(NC(=O)c3cccnc3Nc3ccc4cn[nH]c4c3)ccc12", "note": "[Example 14, [2-(1H-Indazol-6-ylamino)(3-pyridyl)]-N-(4-methyl-2-oxo-1,2-dihydroquinol-7-yl)carboxamide]", "IC50": "< 0.05"},
      {"smiles": "O=C(Nc1ccc(C(F)(F)C(F)(F)C(F)(F)C(F)(F)F)cc1)c1cccnc1Nc1ccc2cn[nH]c2c1", "note": "[Example 20, [2-(1H-Indazol-6-ylamino)(3-pyridyl)]-N-[4-(1,1,2,2,3,3,4,4,4-nonafluorobutyl)phenyl]carboxamide]", "IC50": "< 0.05"},
      {"smiles": "CC(C)(C)c1ccc(NC(=O)c2cccnc2Nc2ccc3cn[nH]c3c2Br)cc1", "note": "[Example 22, N-[4-(tert-Butyl)phenyl]{2-[(7-bromo(1H-indazol-6-yl))amino](3-pyridyl)}carboxamide]", "IC50": "< 0.05"},
      {"smiles": "CN1CC=C(c2cc(NC(=O)c3cccnc3Nc3ccc4cn[nH]c4c3)ccc2C(C)(C)C)CC1", "note": "[Example 23]", "IC50": "< 0.05"},
      {"smiles": "O=C(Nc1ccc(C(O)(C(F)(F)F)C(F)(F)F)cc1)c1cccnc1Nc1ccc2cn[nH]c2c1", "note": "[Example 24]", "IC50": "< 0.05"},
      {"smiles": "COc1ccc(C(C)(C)C)cc1NC(=O)c1cccnc1Nc1ccc2cn[nH]c2c1", "note": "[Example 25, N-[5-(tert-Butyl)-2-methoxyphenyl][2-(1H-indazol-6-ylamino)(3-pyridyl)]carboxamide]", "IC50": "< 0.05"},
      {"smiles": "O=C1NCCc2ccc(NC(=O)c3cccnc3Nc3ccc4cn[nH]c4c3)cc21", "note": "[Example 27, 2-(1H-Indazol-6-ylamino)-N-(1-oxo-1,2,3,4-tetrahydro-isoguinolin-7-yl)-nicotinamide]", "IC50": "< 0.05"},
      {"smiles": "CC(C)Oc1ccc(NC(=O)c2cccnc2Nc2ccc3cn[nH]c3c2)cc1", "note": "[Example 28, [2-(1H-Indazol-6-ylamino)(3-pyridyl)]-N-[4-(methylethoxy)phenyl]carboxamide]", "IC50": "< 0.05"},
      {"smiles": "CN1CCN(c2cc(NC(=O)c3cccnc3Nc3ccc4cn[nH]c4c3)ccc2C(C)(C)C)CC1", "note": "[Example 31, N-[4-(tert-Butyl)-3-(4-methylpiperazinyl)phenyl][2-(1H-indazol-6-ylamino)(3-pyridyl)]carboxamide]", "IC50": "< 0.05"},
      {"smiles": "COc1ccc(NC(=O)c2cccnc2Nc2ccc3cn[nH]c3c2)cc1O", "note": "[Example 36, N-(3-Hydroxy-4-methoxyphenyl)[2-(1H-indazol-6-ylamino)(3-pyridyl)]carboxamide]", "IC50": "< 0.05"},
      {"smiles": "COc1ccc(NC(=O)c2cccnc2Nc2ccc3cn[nH]c3c2)cc1OCCN(C)C", "note": "[Example 37, N-{3-[2-(Dimethylamino)ethoxy]-4-methoxyphenyl)[2-(1H-indazol-6-ylamino)(3-pyridyl)]carboxamide]", "IC50": "< 0.05"},
      {"smiles": "COc1ccc(NC(=O)c2cccnc2Nc2ccc3cn[nH]c3c2)cc1OC1CCN(C)CC1", "note": "[Example 38, [2-(1H-Indazol-6-ylamino)(3-pyridyl)]-N-[4-methoxy-3-(1-methyl(4-piperidyl)oxy)phenyl]carboxamide]", "IC50": "< 0.05"},
      {"smiles": "O=C(Nc1ccc2c(c1)-c1nncn1CC2)c1cccnc1Nc1ccc2cn[nH]c2c1", "note": "[Example 39, [2-(1H-Indazol-6-ylamino)(3-pyridyl)]-N-(5,6,7-trihydro-1,2,4-triazolo[3,4-a]isoquinolin-2-yl)carboxamide]", "IC50": "< 0.05"},
      {"smiles": "CN(C)CCOc1n[nH]c2cc(Nc3ncccc3C(=O)Nc3ccc(C(C)(C)C)cc3)ccc12", "note": "[Example 40, [2-({3-[2-(Dimethylamino)ethoxy](1H-indazol-6-yl)}amino)(3-pyridyl)]-N-[4-(tert-butyl)phenyl]carboxamide]", "IC50": "< 0.05"},
      {"smiles": "CC1(C)CN(CC2CCNCC2)c2cc(NC(=O)c3cccnc3Nc3ccc4cn[nH]c4c3)ccc21", "note": "[Example 41, N-[3,3-Dimethyl-1-(4-piperidylmethyl)indolin-6-yl][2-(1H-indazol-6-ylamino)(3-pyridyl)]carboxamide]", "IC50": "< 0.05"},
      {"smiles": "CN1CCC(CN2CC(C)(C)c3ccc(NC(=O)c4cccnc4Nc4ccc5cn[nH]c5c4)cc32)CC1", "note": "[Example 42, N-[3,3-Dimethyl-1-(1-methyl-piperidin-4-ylmethyl)-2,3-dihydro-1H-indol-6-yl]-2-(1H-indazol-6-ylamino)-nicotinamide]", "IC50": "< 0.05"},
      {"smiles": "O=C(Nc1ccc(Oc2ccccc2)cc1)c1cccnc1Nc1ccc2cn[nH]c2c1", "note": "[Example 43, 2-(1H-Indazol-6-ylamino)-N-(4-phenoxy-phenyl)-nicotinamide]", "IC50": "< 0.05"},
      {"smiles": "O=C(Nc1ccc(-c2ccccc2)cc1)c1cccnc1Nc1ccc2cn[nH]c2c1", "note": "[Example 45, [2-(1H-Indazol-6-ylamino)(3-pyridyl)]-N-(4-phenylphenyl)carboxamide]", "IC50": "< 0.05"},
      {"smiles": "CS(=O)(=O)c1ccc(NC(=O)c2cccnc2Nc2ccc3cn[nH]c3c2)cc1", "note": "[Example 46, [2-(1H-Indazol-6-ylamino)(3-pyridyl)]-N-[4-(methylsulfonyl)phenyl]carboxamide]", "IC50": "< 0.05"},
      {"smiles": "CN1CCC(N2CC(C)(C)c3ccc(NC(=O)c4cccnc4Nc4ccc5cn[nH]c5c4)cc32)CC1", "note": "[Example 48, N-[3,3-Dimethyl-1-(1-methyl(4-piperidyl))indolin-6-yl][2-(1H-indazol-6-ylamino)(3-pyridyl)]carboxamide]", "IC50": "< 0.05"},
      {"smiles": "O=C(Nc1ccc(C(F)(F)F)cc1)c1cccnc1Nc1ccc2cn[nH]c2c1", "note": "[Example 50, [2-(1H-Indazol-6-ylamino)(3-pyridyl)]-N-[4-(trifluoromethyl)phenyl]carboxamide]", "IC50": "< 0.05"},
      {"smiles": "CN(C)CCCc1cc(NC(=O)c2cccnc2Nc2ccc3cn[nH]c3c2)cc(C(F)(F)F)c1", "note": "[Example 51, N-{3-[3-(Dimethylamino)propyl]-5-(trifluoromethyl)phenyl}[2-(1H-indazol-6-ylamino)(3-pyridyl)]carboxamide]", "IC50": "< 0.05"},
      {"smiles": "CC(C)(C)c1ccc(NC(=O)c2cccnc2Nc2ccc3cn[nH]c3c2)cc1CCCN1CCCCC1", "note": "[Example 54, N-[4-(tert-Butyl)-3-(3-piperidylpropyl)phenyl][2-(1H-indazol-6-ylamino)(3-pyridyl)]carboxamide]", "IC50": "< 0.05"},
      {"smiles": "CC(C)(C)c1ccc(NC(=O)c2cccnc2Nc2ccc3cn[nH]c3c2)cc1/C=C/CCN1CCCC1", "note": "[Example 55, N-[3-((1E)-4-Pyrrolidinylbut-1-enyl)-4-(tert-butyl)phenyl][2-(1H-indazol-6-ylamino)(3-pyridyl)]carboxamide]", "IC50": "< 0.05"},
      {"smiles": "CC(C)(C)c1ccc(NC(=O)c2cccnc2Nc2ccc3cn[nH]c3c2)cc1CCCN1CCCC1", "note": "[Example 56, N-[4-(tert-Butyl)-3-(3-pyrrolidinylpropyl)phenyl][2-(1H-indazol-6-ylamino)(3-pyridyl)]carboxamide]", "IC50": "< 0.05"}
    ]}
  ]
}
